For seven compounds, Activity results are on record in ChEMBL document CHEMBL1155283, “Synthesis and anabolic/androgenic evaluation of novel 9alpha-fluorosteroids” (Eur J Med Chem, 2009).

The source made the active and inactive calls. No cut-off for these calls is given here.

What all share (type): functional, organism-based
Assay [1] deals with Rattus norvegicus. Nature of the assay: Androgenic activity in Wistar rat assessed as weight of prostate at 40 mg/kg of corporal weight, sc after 7 days by animal castration method. Set-up: dose 40 mg/kg. Particulars: Prostate gland.
Assay [2] concerns Rattus norvegicus. The assay can be described thus: Androgenic activity in Wistar rat assessed as weight of seminal vesicle at 10 mg/kg of corporal weight, sc after 7 days by animal castration method. Set-up: dose 10 mg/kg.
In assay [3] the test system is Rattus norvegicus. The assay can be described thus: Androgenic activity in Wistar rat assessed as weight of seminal vesicle at 40 mg/kg of corporal weight, sc after 7 days by animal castration method. Set-up: dose 40 mg/kg.
The test system of assay [4] is Rattus norvegicus. The assay can be described thus: Androgenic activity in Wistar rat assessed as weight of prostate at 10 mg/kg of corporal weight, sc after 7 days by animal castration method. Set-up: dose 10 mg/kg. Conditions: Prostate gland.
The test system of assay [5] is Rattus norvegicus. The assay can be described thus: Androgenic activity in Wistar rat assessed as weight of seminal vesicle at 20 mg/kg of corporal weight, sc after 7 days by animal castration method. Set-up: dose 20 mg/kg.
Assay [6] deals with Rattus norvegicus. Nature of the assay: Androgenic activity in Wistar rat assessed as weight of prostate at 20 mg/kg of corporal weight, sc after 7 days by animal castration method. Set-up: dose 20 mg/kg. Particulars: Prostate gland.
The test system of assay [7] is Rattus norvegicus. The assay can be described thus: Anabolic activity in Wistar rat assessed as weight of levator ani muscle at 10 mg/kg of corporal weight, sc after 7 days by animal castration method. Set-up: dose 10 mg/kg.
The test system of assay [8] is Rattus norvegicus. Nature of the assay: Anabolic activity in Wistar rat assessed as weight of levator ani muscle at 40 mg/kg of corporal weight, sc after 7 days by animal castration method. Set-up: dose 40 mg/kg.
Assay [9] concerns Rattus norvegicus. The assay can be described thus: Anabolic activity in Wistar rat assessed as weight of levator ani muscle at 20 mg/kg of corporal weight, sc after 7 days by animal castration method. Also noted: dose 20 mg/kg.

For `C[C@]12CC[C@H](O)C[C@@H]1CC[C@H]1[C@@H]3CCC(=O)[C@@]3(C)C[C@H](O)[C@@]12F`, the outcome in [1], in [2], in assay [3], in assay [4], in assay [5] and in [6] was inactive.

As to `CC(C)C(=O)O[C@H]1CC[C@H]2[C@@H]3CC[C@H]4C[C@@H](O)CC[C@]4(C)[C@@]3(F)[C@@H](O)C[C@]12C`, the outcome in assay [2], in assay [3] and in assay [5] was inactive. In addition, the outcome in [4] and in [6] was Active.

For the compound `CC(=O)O[C@H]1CC[C@@]2(C)[C@@H](CC[C@H]3[C@@H]4CC[C@H](OC(C)=O)[C@@]4(C)C[C@H](O)[C@@]32F)C1`, the outcome in [1] and in [6] was Active.

As to `CC(=O)O[C@H]1CC[C@@]2(C)[C@@H](CC[C@H]3[C@@H]4CCC(=O)[C@@]4(C)C[C@H](O)[C@@]32F)C1`, the outcome in [1] and in assay [6] was Active. The result in [2], in assay [3], in assay [5], in assay [7], in assay [8] and in assay [9] was inactive.

`CCCCCCC(=O)O[C@H]1CC[C@H]2[C@@H]3CC[C@H]4C[C@@H](O)CC[C@]4(C)[C@@]3(F)[C@@H](O)C[C@]12C`: the result in assay [1], in assay [2], in assay [3], in [4], in [5] and in assay [6] was inactive.

Regarding `CC(=O)O[C@H]1CC[C@@]2(C)[C@@H](CC[C@H]3[C@@H]4CC[C@H](O)[C@@]4(C)C[C@H](O)[C@@]32F)C1`, the outcome in [2] was inactive. The outcome in [8] and in assay [9] was Active.

Turning to `CCC(=O)O[C@H]1CC[C@H]2[C@@H]3CC[C@H]4C[C@@H](OC(C)=O)CC[C@]4(C)[C@@]3(F)[C@@H](O)C[C@]12C`, the result in assay [4], in assay [7], in assay [6] and in [9] was Active.
